The values that follow come from US20120115128A1, “SELECTIVE PROTEIN LABELING” (THE BOARD OF TRUSTEES OF THE UNIVERSITY OF ILLINOIS, priority 2009, published 2012).

Converted amounts (≈) assume the structure as drawn. Where two headings read alike, the source gives them in different places. Bounds are passed on as bounds.

Data set [1] deals with E. coli (strain DH5α). Nature of the data set: E. coli growth inhibition assay (MIC on agar plates). The format is cell-based. To be noted: for MIC: Escherichia coli, read-out: minimum inhibitory concentration (MIC). From the text:
E. coli growth inihibition assay. […] The minimal inhibitory concentration (MIC) was reported as the lowest concentration at which no colonies formed.

In data set [2] the target is T1, eDHFR (Escherichia coli, UniProt P0ABQ4).
T1 construct: pRSETb-EGFP-eDHFR expressed the protein fusion […]-[EGFP]-GSGGSG-[eDHFR]; His6 leader of pRSETb ([…]) (N); made in house; host or cells: E. coli BL21 DE3 (pLysS)
Kind of data set: biochemical. Details: species or system E. coli. To be noted: terbium-complexed probe 20 nM, purified eDHFR-GFP, non-linear least-squares fit; read-out: dissociation constant for binding to eDHFR.

Data set [3] deals with eDHFR expressed on the cell surface of NIH3T3 fibroblasts (Escherichia coli, UniProt P0ABQ4). Nature of the data set: Labeling of cell surface-expressed eDHFR (pDisplay-eDHFR) on NIH3T3 fibroblasts, microscopy. Type of data set: cell-based. As to conditions: 1 μM, 10 min, time-resolved imaging.
The test system of data set [4] is nucleus-targeted pfDHFR (K27E, C59R, S108N) soluble domain in NIH 3T3 fibroblast cells. To be noted: 500 nM, ca. 15 minutes.
In data set [5] the test system is human leukocytes. As to conditions: cited from earlier work.
The subject of data set [6] is human cells. To be noted: cited from earlier work.
Data set [7] concerns the target GFP-cldn1/tailΔYV (GFP-cldn1/tail construct lacking the C-terminal YV motif) (human) (UniProt O95832). Nature of the data set: intermolecular TR-FRET microscopy in living MDCK cells; sensitized GFP emission at 520 nm. (Time-resolved FRET reads energy transfer from a long-lived donor to a nearby acceptor.)
The target in data set [8] is T2, GFP-cldn1/tail (N-terminal fusion of EGFP to the C-terminal cytoplasmic domain, residues 187-211, of human … (human, UniProt O95832 187-211, not fully specified)).
T2 construct: Expressed in living MDCK cells; GFP is the FRET acceptor; also called C-terminal cytoplasmic tail of claudin-1; not shown: enhanced GFP (EGFP) as encoded in vector pEGFP-C1 (Clontech)
T2 chain (looked up): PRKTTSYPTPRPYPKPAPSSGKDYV
The data set is described as above.

The target of data set [9] is T2, GFP-cldn1/tail (N-terminal fusion of …). Nature of the data set: intermolecular TR-FRET microscopy in living MDCK cells; reference pair ZO-1/PDZ1-eDHFR and GFP-cldn1/tailΔYV.

Regarding `COc1cc(Cc2cnc(N)nc2N)cc(C#CCCCC(=O)O)c1OCCCCC(=O)NCCOCCOCCN` [Compound 3a], the “ability to cross the E. coli cell membrane (inferred from growth assay)” value in [1] is listed as “cannot cross the cell membrane”. The MIC in data set [1] (24 h) was more than 100 µM.
Regarding `COc1cc(Cc2cnc(N)nc2N)cc(OC)c1OCCCCC(=O)NCCOCCOCCNC(=O)CN(CCN(CCN(CC(=O)O)CC(=O)Nc1ccc2c(C)cc(=O)[nH]c2c1)CC(=O)O)CC(=O)O` [TMP-cDTPA], in data set [2], the Kd was 9 ± 1.3 nM. Also, the “cell-surface labelling of eDHFR, time-resolved mode” value in data set [3] is “not”.
For `CCOc1cc(Cc2cnc(N)nc2N)ccc1OCc1cc(OC)c(OCCCCC(=O)NCCOCCOCCNC(=O)OC(C)(C)C)c(OC)c1` [Compound 2a], in data set [1] (37° C., 24 hours, lowest concentration at which no colonies formed), the MIC was approximately 20 µM (≈ 15.1 µg/mL). In addition, the “cell permeability (diffuse fluorescence)” value in [4] was “passively diffused into mammalian cells”.
Consider `CN(Cc1cnc2nc(N)nc(N)c2n1)c1ccc(C(=O)N[C@@H](CCC(=O)O)C(=O)O)cc1` [MTX, Methotrexate], for which the “concentration at which toxicity observed” value in [5] was 2 µM. For the same molecule, the “extracellular concentration at which DNA damage has been observed” value in data set [6] was 10 µM.

B1: ZO-1/PDZ1-eDHFR (C-terminal fusion of eDHFR to the PDZ1 domain, residues 19-113, of human ZO-1) (other, human;Escherichia coli)
chain: MWEQHTVTLHRAPGFGFGIAISGGRDNPHFQSGETSIVISDVLKGGPAEGQLQENDRVAMVNGVSMDNVEHAFAVQQLRKSGKNAKITIRRKKKVQMISLIAALAVDRVIGMENAMPWNLPADLAWFKRNTLNKPVIMGRHTWESIGRPLPGRKNIILSSQPGTDDRVTWVKSVDEAIAACGDVPEIMVIGGGRVYEQFLPKAQKLYLTHIDAEVEGDTHFPDYEPDDWESVFSEFHDADAQNSHSYCFEILERR
notes: Built by inserting ZO-1 19-113 into pLL-1NLS in frame with eDHFR; also called PDZ1 domain of ZO-1
For B1, the signal-to-noise ratio for intermolecular TR-FRET came out at 1.5 in data set [7] and 6.3 in data set [8]. In addition, in data set [9], the “fold difference in TR-FRET signal against GFP-cldn1/tailΔYV” value is more than 4 fold.
